Here are results for 30 compounds from article PMC6270661, “Antileishmanial Lead Structures from Nature: Analysis of Structure-Activity Relationships of a Compound Library Derived from Caffeic Acid Bornyl Ester” (Molecules, 2014).

The structures appear in SMILES notation.

Broadly, the IC50 is the point on the concentration scale where inhibition reaches its midpoint. Higher therefore signals weaker potency in that assay. One may read the melting point as the temperature, or range, at which the solid turns liquid.

Series [1] relates to L. major promastigotes. The series is described as follows: AlamarBlue assay, antileishmanial activity against L. major promastigotes. In kind it is cell-based, Leishmania major. The following applies: for IC50: mean of two independent experiments; for Selectivity index SI: SI = IC50 for J774.1/IC50 for L. major (promastigotes). The procedure: (§1) Antileishmanial activities of the synthesized compounds were evaluated in L. major promastigotes as described before and in L. donovani promastigotes according to Hazra et al.. […] The antiprotozoal activities are presented in Table 1, Table 2 and Table 3 as inhibitory concentrations (IC50). […] Materials and methods for the biological assays have been described before by the authors. […] The protocol for the L. donovani quantitative colorimetric assay is outlined by Hazra et al.. The IC50 values are presented as mean values of two independent experiments against the parasite and macrophages.
Background: The colour change of resazurin is a common sign of viable cells or microbes.

Series [2] concerns L. donovani promastigotes. In words: Quantitative colorimetric assay against L. donovani promastigotes. In kind it is cell-based. The following applies: mean of two independent experiments. The procedure: as §1
Series [3] in a line: AlamarBlue cytotoxicity assay on J774.1 macrophages. The note with it: mouse, J774.1 macrophage cell line, mean of two independent experiments. It is filed as cell-based, murine.
Series [4] is described as follows: Cytotoxicity against bone marrow derived macrophages (BMDM). The following applies: mouse. In kind it is cell-based, murine. An excerpt: The amastigote is the intracellular pathogenic form of the parasite in the vertebrate host and therefore the important target. […] With regard to antileishmanial activity cinnamic acid menthyl (20) and […] (19) show good activities combined with low cytotoxicity. […] Materials and methods for the biological assays have been described before by the authors. […] The protocol for the L. donovani quantitative colorimetric assay is outlined by Hazra et al.. The IC50 values are presented as mean values of two independent experiments against the parasite and macrophages.

Series [5] deals with L. major amastigotes. In words: L. major amastigote assay. It is filed as cell-based, Leishmania major. The note with it: for IC50: Leishmania major; for Selectivity index SI: SI = IC50 for BMDM/IC50 for L. major (amastigotes).
Series [6] relates to J774.1 murine cell line. In words: AlamarBlue cytotoxicity assay on J774.1 macrophages. It is filed as cell-based.
In series [7] the test system is cysteine-cathepsin (L. major promastigote full-lysate). The series is described as follows: Cysteine-cathepsin fluorescence activity assay with L. major promastigote full-lysate. In kind it is biochemical, Leishmania major. The following applies: preliminary experiments, result in words.

Consider `COc1ccc(/C=C/C(=O)O[C@@H]2CC3CCC2(C)C3(C)C)cc1` (stereo partly drawn) [Compound 16, 4-Methoxycinnamic Acid (−)-Bornyl Ester], for which the melting point was in the range of 87 to 90 °C. The 50% inhibitory concentration (IC50) in series [1] (Leishmania major) was determined as 60.9 µM. This compound gave an IC50 in series [2] (Leishmania donovani) of over 100 µM. For the same compound, inhibition in series [3] was half-maximal at 42.6 µM (IC50).
In the case of `O=C(/C=C/c1ccccc1)OC12CC3CC(CC(C3)C1)C2` [Compound 21, Cinnamic Acid Adamantyl Ester], the melting point is 66 °C. In series [1] (Leishmania major), this compound registered an IC50 of 60 µM. The compound also registered an IC50 in series [2] (Leishmania donovani) of over 100 µM. Further, in series [3], the midpoint of inhibition, the IC50, lay at 46.7 µM.
For the compound `CCCCCCCCCCCCCCCCOP(=O)([O-])OCC[N+](C)(C)C` [miltefosine, reference compound], the IC50 in series [1] (Leishmania major) came to 36.2 µM; in series [3], 56.5 µM; in series [4] it was 65.5 µM; in series [5], 33 µM. Moreover, in series [5], the “Selectivity index SI” value was 2.0.
Compound `Cc1ccc(C(C)C)c(OC(=O)/C=C/c2ccc(O)c(O)c2)c1` [Compound 10, Caffeic Acid Thymyl Ester] displayed a melting point of 115 to 117 °C. The compound further showed an IC50 in series [1] (Leishmania major) of 57.6 µM. This compound also had an IC50 in series [2] (Leishmania donovani) of 42.1 µM. In series [3], this compound registered an IC50 of 9.5 µM. Moreover, in series [4], the IC50 was determined as 9.8 µM. Further, in series [5], the IC50 was determined as 54.1 µM and the “Selectivity index SI” value is recorded as 0.2.
The compound `CC1(C)C2CCC1(C)[C@H](OC(=O)/C=C/c1cccc(Cl)c1Cl)C2` (stereo partly drawn) [Compound 14, 2,3-Dichlorocinnamic acid (−)-bornyl ester] showed a melting point of 86 to 87 °C. For the same compound, the IC50 in series [1] (Leishmania major) came to 65.6 µM. Moreover, the IC50 in series [2] (Leishmania donovani) was over 100 µM. Further, in series [3], the IC50 is 58.9 µM.
With `CC1CCC(C(C)C)C(OC(=O)/C=C/c2ccc(O)c(O)c2)C1` (centres unmarked) [Compound 12, Caffeic Acid Menthyl Ester], the results for the IC50 in series [1] (Leishmania major), in series [2] (Leishmania donovani) and in series [3] were 59.5 µM, 79.4 µM and 1.95 µM, respectively.
With `CC1(C)C2CCC1(C)C(OC(=O)C=Cc1ccc(OCc3ccccc3)cc1)C2` (centres unmarked) [Compound 6], the melting point was 93 to 95 °C. In series [1] (Leishmania major), this compound yielded an IC50 of over 100 µM. In addition, the IC50 in series [2] (Leishmania donovani) is over 100 µM. The compound further had an IC50 in series [3] of over 100 µM.
Regarding `COc1ccc(C=CC(=O)OC2CC3CCC2(C)C3(C)C)cc1O` (centres unmarked) [Compound 8, Isoferulic Acid Isobornyl Ester], the results for the IC50 in series [1] (Leishmania major), in series [2] (Leishmania donovani) and in series [3] were 60.6 µM, 74.5 µM and 44.3 µM, respectively.
With `CC1(C)C2CCC1(C)C(OC(=O)C=Cc1ccc(Cl)cc1)C2` (stereo not drawn) [Compound 3, 4-Chlorocinnamic Acid (−)-bornyl Ester], the melting point fell in the range of 80 to 83 °C. In addition, 71.2 µM corresponded to half-maximal inhibition in series [1] (Leishmania major) (IC50). In series [2] (Leishmania donovani), this compound yielded an IC50 of over 100 µM. Also, the IC50 in series [3] was determined as 49.5 µM.
For `CC1(C)C2CCC1(C)C(OC(=O)C=Cc1ccc([N+](=O)[O-])cc1)C2` (centres unmarked) [Compound 9, 4-Nitrocinnamic Acid Isobornyl Ester] the same measures were 121 to 123 °C, over 100 µM, over 100 µM and over 100 µM.
In the case of `COc1ccc(/C=C/C(=O)Oc2cc(C)ccc2C(C)C)cc1O` [Compound 11, Isoferulic Acid Thymyl Ester], the figures for the IC50 in series [1] (Leishmania major), in series [2] (Leishmania donovani) and in series [3] were 59.8 µM, 79.6 µM and 45.6 µM, respectively.
`CC1(C)C2CCC1(C)[C@H](OC(=O)/C=C/c1ccc(Cl)cc1Cl)C2` (stereo partly drawn) [Compound 17, 2,4-Dichlorocinnamic Acid (−)-bornyl Ester] showed a melting point of 90 to 92 °C. The midpoint of inhibition in series [1] (Leishmania major), the IC50, lay at 80.5 µM. The concentration for half-maximal inhibition (IC50) in series [2] (Leishmania donovani) is over 100 µM. In addition, the IC50 in series [3] came out at 60.6 µM.
Compound `CN(C)c1ccc(C=CC(=O)OC2CC3CCC2(C)C3(C)C)cc1` (stereo not drawn) [Compound 5, 4-N-Dimethylaminocinnamic Acid (−)-bornyl Ester] had a melting point of 114 to 116 °C. This compound had an IC50 in series [1] (Leishmania major) of over 100 µM. Also, the IC50 in series [2] (Leishmania donovani) was over 100 µM. Further, the IC50 in series [3] is over 100 µM.
With `O=C(/C=C/c1ccccc1)OC1CCCCC1` [Compound 23, Cinnamic Acid Cyclohexyl Ester], the values for the IC50 in series [1] (Leishmania major), in series [2] (Leishmania donovani) and in series [3] were over 100 µM, 23.4 µM and over 100 µM, respectively.
As for `CC1(C)C2CCC1(C)C(OC(=O)CCc1ccccc1)C2` (centres unmarked) [Compound 27], the IC50 is 50.2 µM in series [1] (Leishmania major) and over 100 µM in series [3]. Moreover, the “Selectivity index SI” value in series [1] is listed as over 2.0. Moreover, in series [6] (result in words), the “cytotoxicity J774.1 (in words)” value is given as “did not show cytotoxicity”.
Turning to `CC1(C)C2CCC1(C)C(OC(=O)C=Cc1ccccc1)C2` (stereo not drawn) [Compound 15, Cinnamic Acid (−)-Bornyl Ester], the IC50 was 39.6 µM in series [1] (Leishmania major), 45.2 µM in series [3], 54.3 µM in series [4] and 10.9 µM in series [5]. Also, the “Selectivity index SI” value in series [1] is 1.1; in series [5], 5.0. Also, the protease inhibitory activity result in series [7] is recorded as “showed protease inhibitory activity”.
Take `COc1ccc(/C=C/C(=O)OC2CC(C)CCC2C(C)C)cc1O` (centres unmarked) [Compound 13, Isoferulic Acid Menthyl Ester]: the IC50 in series [1] (Leishmania major) was 54.2 µM; in series [2] (Leishmania donovani), over 100 µM; in series [3] it was 44.6 µM.
For the compound `N=C(N)c1ccc(OCCCCCOc2ccc(C(=N)N)cc2)cc1` [pentamidine, reference compound], the IC50 is 82 µM in series [1] (Leishmania major) and 38.6 µM in series [3].
Consider `CC(=O)Oc1ccc(/C=C/C(=O)O[C@@H]2CC3CCC2(C)C3(C)C)cc1OC(C)=O` (stereo partly drawn) [Compound 28, 3-(3,4-Bis(acetyloxy))phenyl Propenoic Acid (−)-Bornyl Ester], for which the values for the IC50 in series [1] (Leishmania major) and in series [3] were 30.7 µM and 2.1 µM, respectively.
Turning to `CC1(C)C2CCC1(C)[C@@H](OC(=O)/C=C/c1ccccc1)C2` (some centres unmarked) [Compound 18, Cinnamic Acid Isobornyl Ester], the IC50 was 64.3 µM in series [1] (Leishmania major), 51.2 µM in series [2] (Leishmania donovani) and 46 µM in series [3].
`CC1CCC(C(C)C)C(OC(=O)/C=C/c2ccccc2)C1` (centres unmarked) [Compound 20, Cinnamic Acid Menthyl Ester]: the IC50 is 53.1 µM in series [1] (Leishmania major); 79.7 µM in series [2] (Leishmania donovani); 44.8 µM in series [3]; over 126 µM in series [4]; 19.5 µM in series [5]. In addition, the “Selectivity index SI” value in series [5] is reported as over 6.4.
Turning to `CC(C)=CCC/C(C)=C/COC(=O)/C=C/c1ccccc1` [Compound 26, Cinnamic Acid Geranyl Ester], the results for the IC50 in series [1] (Leishmania major), in series [2] (Leishmania donovani) and in series [3] were over 100 µM, 41.9 µM and over 100 µM, respectively.
For `CC1(C)C2CCC1(C)C(OC(=O)C=Cc1ccc(O)c(O)c1)C2` (centres unmarked) [Compound 7, Caffeic Acid Isobornyl Ester], the IC50 stood at 45.8 µM in series [1] (Leishmania major); 34.8 µM in series [2] (Leishmania donovani); 8.8 µM in series [3]; 10.9 µM in series [4]; 47 µM in series [5]. Further, in series [5], the “Selectivity index SI” value is 0.2.
Consider `Cc1ccc(C(C)C)c(OC(=O)/C=C/c2ccccc2)c1` [Compound 19, Cinnamic Acid Thymyl Ester], for which the IC50 in series [1] (Leishmania major) was 55 µM; in series [2] (Leishmania donovani) it was over 100 µM; in series [3], 44.8 µM; in series [4], over 148 µM; in series [5] it was 49.1 µM. Further, in series [5], the “Selectivity index SI” value was over 3.0.
`O=C(/C=C/c1ccccc1)Oc1ccc2ccccc2c1` [Compound 22]: the melting point fell in the range of 109 to 110 °C. This compound returned an IC50 in series [1] (Leishmania major) of 67 µM. This compound also displayed an IC50 in series [2] (Leishmania donovani) of 28.7 µM. In series [3], this compound yielded an IC50 of 44.5 µM.
The compound `C[C@@H]1[C@H](O)[C@@H](C)/C=C/C=C/C=C/C=C/C=C/C=C/C=C/[C@H](O[C@@H]2O[C@H](C)[C@@H](O)[C@H](N)[C@@H]2O)C[C@@H]2O[C@](O)(C[C@@H](O)C[C@@H](O)[C@H](O)CC[C@@H](O)C[C@@H](O)CC(=O)O[C@H]1C)C[C@H](O)[C@H]2C(=O)O` [amphotericin B, reference compound] had an IC50 in series [2] (Leishmania donovani) of 0.4 µM. This lies in the sub-micromolar range.
Compound `CC1(C)C2CCC1(C)C(OC(=O)C=Cc1ccc(Br)cc1)C2` (stereo not drawn) [Compound 4, 4-Bromocinnamic Acid (−)-bornyl Ester] registered a melting point of 71 to 74 °C. The IC50 in series [1] (Leishmania major) is over 100 µM. This compound also returned an IC50 in series [2] (Leishmania donovani) of over 100 µM. For the same compound, half-maximal inhibition in series [3] (IC50) was put at 54.6 µM.
For `CC(C)=CCCC(C)(OC(=O)C=Cc1ccccc1)C1CC=C(C)CC1` (centres unmarked) [Compound 24, Cinnamic Acid Bisabolyl Ester], the IC50 in series [1] (Leishmania major), in series [2] (Leishmania donovani) and in series [3] was over 100 µM in each case.
Turning to `C=CCc1ccc(OC(=O)/C=C/c2ccccc2)c(OC)c1` [Compound 25, Cinnamic Acid Eugenyl Ester], the IC50 in series [1] (Leishmania major) is over 100 µM; in series [2] (Leishmania donovani), 80.3 µM; in series [3], 32.2 µM.
For the compound `COc1ccc(/C=C/C(=O)OC2CC3CCC2(C)C3(C)C)cc1O` (stereo not drawn) [Compound 2, Isoferulic Acid (−)-bornyl Ester], the half-inhibitory concentration (IC50) was determined as 64.4 µM in series [1]; 41.3 µM in series [2]; 48.7 µM in series [6] (mean of two independent experiments); 49 µM in series [4]; 39.2 µM in series [5]. Further, the “Selectivity index SI” value in series [5] is 1.2.
